Counter-ions that a name gives are not always drawn. Like-named read-outs stand apart in the source and are kept apart here.
Tests used:
[1] = system: cultured human mast cells; test: Degranulation inhibition test using cultured human mast cells (IgE cross-linking, β-Hexosaminidase release); assay type: cell-based; settings: Mast cell; cultured human mast cells, anti-hIgE stimulation, β-Hexosaminidase index, average; read-out: human degranulation ave. IC50
Protocol: Degranulation Inhibition Test Using Cultured Human Mast Cells
(1) Separation of Hematopoietic Stem Cells;
After 10 to 60 mL of umbilical cord blood collected with heparin was diluted with an equivalent amount of buffer (0.5% BSA, 2 mM EDTA/PBS-), it was superposed on Ficoll-Paque (Amersham Pharmacia Biotech) (Ficoll/Blood (1:2)) and mononuclear leukocyte fraction was collected by centrifuging it at 400 G (1350 rpm) 4° C. for 30 minutes. After centrifugal washing (1500 rpm, 5 min, 4° C.×3) with buffer, the number of cells was counted and 0.1 mL of CD34 Progenitor Cell Isolation Kit (Miltenyi Biotec), Reagent A1 (Fc blocking) was added for 1×10^8 cells. After agitation, 0.1 mL of Reagent A2 (CD34 antibody-hapten) was added (final volume 0.5 mL/1×10^8 cells) and incubated at 9° C. for further 15 minutes after agitation. After centrifugal washing (1500 rpm, 5 min, 4° C.×3), it was resuspeded in a buffer (0.4 mL) and 0.1 mL of Reagent B (anti hapten antibody-microbeads) was added and agitated (final volume 0.5 mL/1×10^8 cells) and incubated at 9° C. for further 15 minutes. After centrifugal washing (1500 rpm, 5 min, 4° C.×2), it was resuspeded in a buffer (0.5 mL) and loaded on CS column (Miltenyi Biotec) set in MACS (MAgnetic Cell Sorting system; Miltenyi Biotec, Daiichi Pure Chemicals) and washed with 30 mL of buffer to remove CD34^− cells. The column was separated from MACS and eluted with 30 mL of buffer and CD34^+ cells bound to the column were collected and used as a hematopoietic stem cell population.
(2) Acquisition of Human Mast Cells by Long-Term Culturing of Hematopoietic Stem Cells;
The CD34^+ cells separated in (1) were resuspended in Iscove's Modified Dulbecco's Medium (IMDM, Gibco) containing human (rh)SCF (1 μg/mL, Peprotech), rhIL-6 (0.5 μg/mL, Peprotech), rhIL-3 (10 ng/mL, Peprotech), 1% Insulin-Transferrin (Gibco), 5×10^−5M 2-ME (Gibco), 0.1% BSA (Sigma) in a density of 1×10^6 cells/ml and disseminated on 24-well culture plate with a dose of 0.1 mL/well and 0.9 ml of IMDM (Methocult SF^BIT StemCell technology) containing 0.9% methyl cellulose was added and culturing was started. The above culture medium (excluding methyl cellulose) was added in a week and after that 100 μL/well of the above culture medium (further excluding IL-3) was added at an interval of every once a week so that cells were diluted to maintain 10^5 cells/mL/well order and cultured more than about 8 weeks and thereby human culture mast cells were obtained.
(3) Expression Enhancement of FcεRI and Inhibition Test IgE Cross-Linking Stimulating Degranulation;
rhIL-4 (final concentration 1 ng/mL, R & D) and Homo sapiens(h) IgE (final concentration 0.5 μg/mL, CHEMICON) were added to the obtained human culture mast cells, and they were incubated for 5 days to enhance the expression of FcεRI. After incubation, cells were collected and, after centrifugal washing (IMDM), they were disseminated on 96-well culture plate in 5×10^4 cells/80 μL/well.
10 μL of a compound 10-fold diluted with IMDM after dissolved in DMSO (DMSO final concentration 0.1%) was added and reacted at 37° C. for 10 minutes. Further, 10 μL of anti-hIgE Ab (CHEMICON) adjusted to 100 μg/mL (final concentration 10 μg/mL) was added and degranulation was caused by being stimulated at 37° C. for 30 minutes. After centrifugation, 50 μL/well of the supernatant was collected and stored at −40° C. untill the quantity of degranulation was measured. The measurement of quantity of degranulation was performed using enzymatic activity of β-Hexosaminidase contained in the granulates as an index. That is, an equivalent amount of p-nitrophenyl-N-acetyl-β-D-glucosaminide (1 mM) (containing 0.1% Triton X-100) which is a substrate of β-Hexosaminidase was added to 50 μL of the culture filtrate, and after reacted at 37° C. for 2 hours, the reaction was terminated by using 100 μL of Carbonate buffer (0.1M, pH 10). […]

[2] = target: GST-Syk Full Protein (human) (Homo sapiens, UniProt P43405); test: Syk kinase inhibition test (HTRF method); assay type: biochemical
Method in brief: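 Human GST-Syk full-length (6.4 nM) phosphorylated biotin-EDPDYEWPSA-NH2 (250 nM) with 100 μM ATP in HEPES pH 7.0/MgCl2 buffer, 2% DMSO, 30 min at room temperature. EDTA stop, then HTRF detection (streptavidin-XL665, Eu anti-phosphotyrosine) after 1 h; 665/620 ratio read.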

[3] = HTRF, 100 μM ATP, 30 min room temperature, average, read-out: sykHTRF ave IC50
[4] = Tables 2-x, thiophene compounds B, read-out: sykHTRK ave IC50

Compound	IC50 [1] [nM]	IC50 [2, 3] [nM]	IC50 [2, 4] [nM]
Cc1ccnc(Nc2cccc(-c3cnc(N4CCN(C)C(=O)C4)s3)n2)c1 [Compound A-1, 1-methyl-4-{5-[6-(4-methylpyridin-2-ylamino)pyridin-2-yl]thiazol-2-yl}piperazin-2-one]	100 to 1000	100 to 1000	–
Cc1ccnc(Nc2cccc(-c3cnc(N4CCC(C(=O)O)CC4)s3)n2)c1 [Compound A-2, 1-{5-[6-(4-methylpyridin-2-ylamino)pyridin-2-yl]thiazol-2-yl}piperidine-4-carboxylic acid]	> 1000	< 100	–
Cc1ccnc(Nc2cccc(-c3cnc(N4CCC(C(N)=O)CC4)s3)n2)c1 [Compound A-3, 1-{5-[6-(4-methylpyridin-2-ylamino)pyridin-2-yl]thiazol-2-yl}piperidine-4-carboxamide]	100 to 1000	< 100	–
CNC(=O)C1CCN(c2ncc(-c3cccc(Nc4cc(C)ccn4)n3)s2)CC1 [Compound A-4, N-methyl-1-{5-[6-(4-methylpyridin-2-ylamino)pyridin-2-yl]thiazol-2-yl}piperidine-4-carboxamide]	> 1000	< 100	–
Cc1ccnc(Nc2cccc(-c3cnc(N4CCC(C(=O)NCCO)CC4)s3)n2)c1 [Compound A-5, N-(2-hydroxyethyl)-1-{5-[6-(4-methylpyridin-2-ylamino)pyridin-2-yl]thiazol-2-yl}piperidine-4-carboxamide]	100 to 1000	< 100	–
COC(=O)[C@H]1CC[C@H](c2ncc(-c3cccc(Nc4cc(C)ccn4)n3)s2)CC1 [Compound A-6, trans-4-{5-[6-(4-methylpyridin-2-ylamino)pyridin-2-yl]thiazol-2-yl}cyclohexanecarboxylic acid methyl ester]	100 to 1000	100 to 1000	–
Cc1ccnc(Nc2cccc(-c3cnc([C@H]4CC[C@H](C(=O)O)CC4)s3)n2)c1 [Compound A-7, trans-4-{5-[6-(4-methylpyridin-2-ylamino)pyridin-2-yl]thiazol-2-yl}cyclohexanecarboxylic acid]	> 1000	< 100	–
Cc1ccnc(Nc2cccc(-c3cnc([C@H]4CC[C@H](C(=O)N5CCC(O)CC5)CC4)s3)n2)c1 [Compound A-8, (4-hydroxypiperidin-1-yl)-(trans-4-{5-[6-(4-methylpyridin-2-ylamino)pyridin-2-yl]thiazol-2-yl}cyclohexyl)methanone]	100 to 1000	100 to 1000	–
Cc1ccnc(Nc2cccc(-c3cnc([C@H](C)N)s3)n2)c1 [Compound A-9, N—((S)-1-{5-[6-(4-methylpyridin-2-ylamino)pyridin-2-yl]thiazol-2-yl}ethyl)amine]	100 to 1000	100 to 1000	–
CC(=O)N[C@@H](C)c1ncc(-c2cccc(Nc3cc(C)ccn3)n2)s1 [Compound A-10, N—((S)-1-{5-[6-(4-methylpyridin-2-ylamino)pyridin-2-yl]thiazol-2-yl}ethyl)acetamide]	100 to 1000	100 to 1000	–
Cc1ccnc(Nc2cccc(-c3cnc([C@@H]4COC(=O)N4C)s3)n2)c1 [Compound A-11]	100 to 1000	100 to 1000	–
CC(=O)Nc1ncc(-c2cccc(Nc3cc(C)ccn3)n2)s1 [Compound A-23]	100 to 1000	–	–
Cc1ccnc(Nc2cccc(-c3ccc(CN4CCCc5ccc(C(=O)O)cc54)s3)n2)c1 [Compound B-110]	–	–	100 to 1000
Cc1ccnc(Nc2cccc(-c3ccc(C(=O)NC[C@H]4CC[C@H](C(=O)O)CC4)s3)n2)c1 [Compound B-111]	–	–	100 to 1000
Cc1ccnc(Nc2cccc(-c3ccc(C(=O)NCc4ccc(C(=O)O)cc4)s3)n2)c1 [Compound B-112]	–	–	100 to 1000
Cc1ccnc(Nc2cccc(-c3ccc(C(=O)N4CCC(CC(=O)O)CC4)s3)n2)c1 [Compound B-113]	–	–	100 to 1000

Compound	IC50 [1] [nM]	IC50 [2, 3] [nM]	IC50 [2, 4] [nM]
C/C(=C\C(=O)O)c1ccc(-c2cccc(Nc3cc(C)ccn3)n2)s1 [Compound B-114]	–	–	100 to 1000
Cc1ccnc(Nc2cccc(-c3ccc(C(=O)N4CCC(C(=O)O)CC4)s3)n2)c1 [Compound B-115]	–	–	100 to 1000
Cc1ccnc(Nc2cccc(-c3ccc(CNCc4ccc(C(=O)O)cc4)s3)n2)c1 [Compound B-116, 4-[({5-[6-(4-methylpyridin-2-ylamino)pyridin-2-yl]thiophen-2-ylmethyl}amino)methyl]benzoic acid]	–	–	< 100
Cc1ccnc(Nc2cccc(-c3ccc(C(=O)N[C@H](C(=O)O)C(C)C)s3)n2)c1 [Compound B-117]	–	–	100 to 1000
Cc1ccnc(Nc2cccc(-c3ccc(CNC[C@H]4CC[C@H](C(=O)O)CC4)s3)n2)c1 [Compound B-118]	–	–	100 to 1000
CC(=O)N(Cc1ccc(C(=O)O)cc1)Cc1ccc(-c2cccc(Nc3cc(C)ccn3)n2)s1 [Compound B-119, 4-[(N-acetyl-N-{5-[6-(4-methylpyridin-2-ylamino)pyridin-2-yl]thiophen-2-ylmethyl}amino)methyl]benzoic acid]	–	–	< 100
CC(=O)N(Cc1ccc(-c2cccc(Nc3cc(C)ccn3)n2)s1)C[C@H]1CC[C@H](C(=O)O)CC1 [Compound B-120, trans-4-[(N-acetyl-N-{5-[6-(4-methylpyridin-2-ylamino)pyridin-2-yl]thiophen-2-ylmethyl}amino)methyl]cyclohexanecarboxylic acid]	–	–	< 100
Cc1ccnc(Nc2cccc(-c3ccc(CNC(=O)[C@H]4CC[C@H](C(=O)O)CC4)s3)n2)c1 [Compound B-121]	–	–	100 to 1000
Cc1ccnc(Nc2cccc(-c3ccc(C(=O)N(C)Cc4ccc(C(=O)O)cc4)s3)n2)c1 [Compound B-122]	–	–	100 to 1000
Cc1ccnc(Nc2cccc(-c3ccc(CN(C)C(=O)[C@H]4CC[C@H](C(=O)O)CC4)s3)n2)c1 [Compound B-123]	–	–	100 to 1000
CC(=O)N(CCC(=O)O)Cc1ccc(-c2cccc(Nc3cc(C)ccn3)n2)s1 [Compound B-124, 3-(N-acetyl-N-{5-[6-(4-methylpyridin-2-ylamino)pyridin-2-yl]thiophen-2-ylmethyl}amino)propionic acid hydrochloride]	–	–	< 100
Cc1ccnc(Nc2cccc(-c3ccc(CN(C)C(=O)c4ccc(C(=O)O)cc4)s3)n2)c1 [Compound B-125]	–	–	100 to 1000
Cc1ccnc(Nc2cccc(-c3ccc(CN(Cc4ccccc4)C(=O)CCC(=O)O)s3)n2)c1 [Compound B-126]	–	–	100 to 1000
Cc1ccnc(Nc2cccc(-c3ccc(CN(Cc4ccc(C(=O)O)cc4)C(=O)C(C)C)s3)n2)c1 [Compound B-127, 4-[(N-isobutyryl-N-{5-[6-(4-methylpyridin-2-ylamino)pyridin-2-yl]thiophen-2-ylmethyl}amino)methyl]benzoic acid]	–	–	< 100
Cc1ccnc(Nc2cccc(-c3ccc(CN(Cc4ccc(C(=O)O)cc4)C(=O)CO)s3)n2)c1 [Compound B-128, 4-[(N-(2-hydroxyacetyl)-N-{5-[6-(4-methylpyridin-2-ylamino)pyridin-2-yl]thiophen-2-ylmethyl}amino)methyl]benzoic acid]	–	–	< 100
